# What was measured:
# Type in all cases: in vivo
# Details in all cases: 250 g/Ha, evaluated after 13 days
# [1] = system: Echinochloa crus-galli (ECHCG); assay: Pre-emergence herbicidal glasshouse test
# Text: (§1) Compounds are applied at 250 g/h. […] NT=not tested.
# Lolium perenne (LOLPE) [2] = assay: Pre-emergence herbicidal glasshouse test
# Text: as §1
# Avena fatua (AVEFA) [3] = assay: Pre-emergence herbicidal glasshouse test
# Text: as §1
# [4] = system: Alopecurus myosuroides (ALOMY); assay: Pre-emergence herbicidal glasshouse test
# Text: as §1
# Setaria faberi (SETFA) [5] = assay: Pre-emergence herbicidal glasshouse test
# Text: as §1
# [6] = system: Echinochloa crus-galli (ECHCG); assay: Post-emergence herbicidal glasshouse test
# Text: as §1
# Lolium perenne (LOLPE) [7] = assay: Post-emergence herbicidal glasshouse test
# Text: as §1
# Avena fatua (AVEFA) [8] = assay: Post-emergence herbicidal glasshouse test
# Text: as §1
# [9] = system: Alopecurus myosuroides (ALOMY); assay: Post-emergence herbicidal glasshouse test
# Text: as §1
# Setaria faberi (SETFA) [10] = assay: Post-emergence herbicidal glasshouse test
# Text: as §1
Compound,"percentage damage caused to the plant, ECHCG [1]","percentage damage caused to the plant, LOLPE (Lolium perenne (LOLPE) [2])","percentage damage caused to the plant, AVEFA (Avena fatua (AVEFA) [3])","percentage damage caused to the plant, ALOMY [4]","percentage damage caused to the plant, SETFA (Setaria faberi (SETFA) [5])","percentage damage caused to the plant, ECHCG [6]","percentage damage caused to the plant, LOLPE (Lolium perenne (LOLPE) [7])","percentage damage caused to the plant, AVEFA (Avena fatua (AVEFA) [8])","percentage damage caused to the plant, ALOMY [9]","percentage damage caused to the plant, SETFA (Setaria faberi (SETFA) [10])"
CC#Cc1cc(C)c(C2C(=O)CC3(CCN(S(=N)(=O)CC)CC3)CC2=O)c(C)c1 (stereo not drawn) [Compound A2],5 (5=80-100%),5 (5=80-100%),5 (5=80-100%),5 (5=80-100%),5 (5=80-100%),5 (5=80-100%),5 (5=80-100%),5 (5=80-100%),5 (5=80-100%),5 (5=80-100%)
CC#Cc1cc(C)c(C2C(=O)CC3(CCN(S(=O)(=O)N(C)C)CC3)CC2=O)c(C)c1 [Compound A4],5 (5=80-100%),5 (5=80-100%),5 (5=80-100%),5 (5=80-100%),5 (5=80-100%),5 (5=80-100%),5 (5=80-100%),5 (5=80-100%),5 (5=80-100%),5 (5=80-100%)
CC#Cc1cc(C)c(C2C(=O)CC3(CCN(S(=N)(=O)c4ccccn4)CC3)CC2=O)c(C)c1 (stereo not drawn) [Compound A5],5 (5=80-100%),5 (5=80-100%),5 (5=80-100%),–,5 (5=80-100%),5 (5=80-100%),5 (5=80-100%),5 (5=80-100%),–,5 (5=80-100%)
CC#Cc1cc(C)c(C2C(=O)CC3(CCN(S(=O)(=O)NCC)CC3)CC2=O)c(C)c1 [Compound A6],5 (5=80-100%),4 (4=60-79%),4 (4=60-79%),3 (3=40-59%),5 (5=80-100%),5 (5=80-100%),5 (5=80-100%),5 (5=80-100%),5 (5=80-100%),5 (5=80-100%)
CC#Cc1cc(C)c(C2C(=O)CC3(CCN(S(=O)(=O)N4CCOCC4)CC3)CC2=O)c(C)c1 [Compound A7],5 (5=80-100%),5 (5=80-100%),1 (1=0-19%),2 (2=20-39%),5 (5=80-100%),5 (5=80-100%),5 (5=80-100%),5 (5=80-100%),5 (5=80-100%),5 (5=80-100%)
CC#Cc1cc(C)c(C2C(=O)CC3(CCN(S(=O)(=O)N(C)CC#N)CC3)CC2=O)c(C)c1 [Compound A11],5 (5=80-100%),4 (4=60-79%),2 (2=20-39%),1 (1=0-19%),5 (5=80-100%),5 (5=80-100%),5 (5=80-100%),5 (5=80-100%),5 (5=80-100%),5 (5=80-100%)
CC#Cc1cc(C)c(C2C(=O)CC3(CCN(S(=O)(=O)N4CCS(=O)(=O)CC4)CC3)CC2=O)c(C)c1 [Compound A12],5 (5=80-100%),4 (4=60-79%),5 (5=80-100%),5 (5=80-100%),5 (5=80-100%),5 (5=80-100%),4 (4=60-79%),5 (5=80-100%),5 (5=80-100%),5 (5=80-100%)
CC#Cc1cc(C)c(C2C(=O)CC3(CCN(S(=O)(=O)NC(C)=O)CC3)CC2=O)c(C)c1 [Compound A13],5 (5=80-100%),5 (5=80-100%),5 (5=80-100%),5 (5=80-100%),5 (5=80-100%),5 (5=80-100%),5 (5=80-100%),5 (5=80-100%),5 (5=80-100%),5 (5=80-100%)
CC#Cc1cc(C)c(C2=C(OC(=O)OC)CC3(CCN(S(=N)(=O)CC)CC3)CC2=O)c(C)c1 (stereo not drawn) [Compound P1],5 (5=80-100%),5 (5=80-100%),5 (5=80-100%),5 (5=80-100%),5 (5=80-100%),5 (5=80-100%),5 (5=80-100%),5 (5=80-100%),5 (5=80-100%),5 (5=80-100%)
"CC#Cc1cc(C)c(C2=C(OC(=O)OC)CC3(CCN(S(=O)(=O)NC)CC3)CC2=O)c(C)c1 [Compound P2, [9-(2,6-dimethyl-4-prop-1-ynyl-phenyl)-3-(methylsulfamoyl)-10-oxo-3-azaspiro[5.5]undec-8-en-8-yl] methyl carbonate]",5 (5=80-100%),5 (5=80-100%),5 (5=80-100%),5 (5=80-100%),5 (5=80-100%),5 (5=80-100%),5 (5=80-100%),5 (5=80-100%),5 (5=80-100%),5 (5=80-100%)
"CC#Cc1cc(C)c(C2=C(OC(=O)OC)CC3(CCN(S(C)(=N)=O)CC3)CC2=O)c(C)c1 (stereo not drawn) [Compound P3, [9-(2,6-dimethyl-4-prop-1-ynyl-phenyl)-3-(methylsulfonimidoyl)-10-oxo-3-azaspiro[5.5]undec-8-en-8-yl] methyl carbonate]",5 (5=80-100%),5 (5=80-100%),5 (5=80-100%),5 (5=80-100%),5 (5=80-100%),–,5 (5=80-100%),5 (5=80-100%),5 (5=80-100%),5 (5=80-100%)
CC#Cc1cc(C)c(C2=C(OC(=O)OC)CC3(CCN(S(=O)(=O)N(C)C(=O)OC)CC3)CC2=O)c(C)c1 [Compound P4],5 (5=80-100%),5 (5=80-100%),5 (5=80-100%),5 (5=80-100%),5 (5=80-100%),5 (5=80-100%),5 (5=80-100%),5 (5=80-100%),5 (5=80-100%),5 (5=80-100%)

# From patent publication US12281081B2, “Herbicidal compounds” (SYNGENTA CROP PROTECTION AG, priority 2019, dated 2025)
